Measurements published in EP4786540A1, “POLYMER COMPOSITION AND METHOD FOR PRODUCING SAME, FORMULATION, CROSSLINKED PRODUCT, AND TIRE” (priority 2023, dated 2025).

Key:
[1] = pH of the acid forming the acid component (pH meter, 20°C); type: physicochemical; conditions: organic acid 1.0 g in purified water 1.0 L, inorganic acid 0.1-mol/L aqueous solution, for a salt, pH of the acid forming it
Protocol: No particular limitation is imposed on the acidity of the acid forming the acid component (B), which is specifically the pH of the acid forming the acid component (B) at 20°C, is for example, 1 to 6. […] When the acid component (B) is an inorganic acid, the pH corresponds to a value measured by use of a […] aqueous solution. In the case of a metal salt of the acid, the pH corresponds to the pH of the acid forming the metal salt thereof.
The pH of a liquid prepared by mixing an acid (1.0 g) and purified water (1.0 L) was measured at 20°C by means of a pH meter (product of HORIBA, Ltd.). In the case of an organic acid salt, the pH of the acid forming the salt was measured.
The pH of a 0.1-mol/L aqueous solution of the acid employed was measured at 20°C in the same manner as employed above.

[2] = physchem
Protocol: The acid component (B) preferably has high solubility in a good solvent for the modified conjugated diene-based polymer (A).
An acid or a metal salt thereof (1.0 g) was added to cyclohexane (1.0 L), and the system was tightly closed. The contents were mixed at 25°C for 5 minutes. The resultant liquid mixture was allowed to stand for 10 minutes, and then the state of the liquid mixture was visually observed.

Row | pH [1] | solubility at 5 min ([2]; 25 °C, organic solvent or mixture, thermodynamic from solid) | Structure (SMILES) | solubility in cyclohexane at 25°C ([2]; 1.0 g in 1.0 L cyclohexane, mixed 5 minutes, stood 10 minutes, visual)
1 | 3 |  | CCCCC(CC)C(=O)O (centres unmarked) [b-1, 2-ethylhexanonic acid] | 
2 | 4 | ≥ 1000 µg/mL | O=C(O)c1ccccc1C(=O)O [b-2, phthalic acid] | 
3 |  |  | CCCCC(CC)COP(=O)(O)OCC(CC)CCCC (centres unmarked) [b-4, bis(2-ethylhexyl) phosphate] | ≥ 1000 µg/mL

Row | Structure (SMILES) | pH [1] | solubility at 5 min ([2]; 25 °C, organic solvent or mixture, thermodynamic from solid) | solubility in cyclohexane at 25°C ([2]; 1.0 g in 1.0 L cyclohexane, mixed 5 minutes, stood 10 minutes, visual)
4 | Cl [b-3, hydrochloric acid] | 1 |  | 
